# “Also recorded” adds a separate entry of the source. No end group written: not given here.
# Tests used:
# [1] = target: T1, DMC1 ΔN (Homo sapiens, UniProt Q14565); assay: Microscale thermophoresis (MST), BRCA2 peptides and DMC1 ΔN; format: binding; settings: for Kd: MST from initial fluorescence, labelled DMC1 ΔN 150 nM, 10 mM HEPES pH 8.0, 150 mM NaCl, 0.05 % Tween-20, ~22 °C, mean, n = 3 independent experiments
# T1 construct: DMC1 ΔN (83-340) were cloned into pHAT4; His6 (TEV-cleavable) (N, cleaved yes); made in house; host or cells: E. coli BL21 (DE3)
# T1 sequence (Q14565 83-340): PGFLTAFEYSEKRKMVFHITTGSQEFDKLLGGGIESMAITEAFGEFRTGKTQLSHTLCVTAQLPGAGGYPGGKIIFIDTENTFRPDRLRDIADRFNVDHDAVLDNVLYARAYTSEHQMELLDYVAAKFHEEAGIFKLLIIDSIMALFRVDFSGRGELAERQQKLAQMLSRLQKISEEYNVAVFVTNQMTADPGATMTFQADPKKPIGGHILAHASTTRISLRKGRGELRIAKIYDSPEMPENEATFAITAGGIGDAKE
# Procedure: DMC1 ΔN and DMC1 ΔN loop mutant were labelled in 10 mM HEPES pH 8.0, 150 mM NaCl with an amine reactive fluorescent dye (MonolithTM Protein Labelling Kit BLUE-NHS, Nanotemper GmbH). A serial dilution of titrant (peptide) was prepared in 10 mM HEPES pH 8.0, 150 mM NaCl, 0.05 % Tween-20. The concentration of labelled DMC1 ΔN or DMC1 ΔN loop mutant were constant at 150 nM and the concentration of the interacting peptide was titrated in 1:1 dilutions starting from 750 µM. An equal volume (10 µl) of the serial dilution and of the diluted labelled DMC1 were mixed and loaded in glass capillaries (MonolithTM NT.115 MST Premium Coated Capillaries, Nanotemper GmbH). The initial fluorescence and the thermophoretic mobility were measured on a Monolith NT.115 system (NanoTemper Technologies). The excitation power was 45 % and MST power was 60 % at room temperature (~22 °C). Laser on and off times were set at 5 and 30 seconds, respectively. Data analysis was performed with NT Affinity Analysis software.
# As a change in initial fluorescence was detected, SDS denaturation (SD) tests were performed according to the manufacturer’s instructions to determine whether these changes were ligand-induced and whether the data could therefore be used to derive affinity measurements. Briefly, 7 µl of the samples containing the three highest and three lowest concentrations of peptide were mixed with 7 µl of denaturation buffer (4 % SDS, 40 mM DTT). After incubating each for 5 minutes at 95 °C to denature the proteins and subject to brief centrifugation, the samples were loaded onto Premium Coated Capillaries and their initial fluorescence measurements recorded. […] Initial fluorescence readings were used to derive binding affinities.
# [2] = target: T1, DMC1 ΔN; assay: Amylose pull-down of DMC1 ΔN with MBP-BRCA2 fusions; format: binding; settings: recombinant co-expression with MBP-BRCA2 fusion
# Source text: (§1) For affinity pulldown experiments, MBP-fusions of BRCA2 fragments (Ex14, amino-acids 2387-2420, Ex14-Tr, amino acids 2401-2414, Ex27, amino acids 3270-3315, BRC4, amino acids 1519-1551) were cloned into pMAT11 vectors[54] and co-expressed with DMC1 ΔN, DMC1 ΔN loop mutant (in which DMC1 amino acids 147-GAGGYPG-153 and 178-NVDHDA-183 were replaced by the cognate sequences of RAD51 148-IDRGGGE-154 and 179-GLSGSD-184), RAD51 ΔN, RAD51 ΔN loop mutant (the reverse switch of DMC1 ΔN loop mutant), and RAD51. MBP-fusions and complexes were purified through amylose affinity chromatography.
# [3] = target: T2, DMC1 ΔN loop mutant (Homo sapiens, UniProt Q14565, A148D/A183D/D180S/D182S/G147I/G149R/G153E/H181G/N178G/P152G/V179L/Y151G); assay: Amylose pull-down of DMC1 ΔN loop mutant with MBP-BRCA2 fusions; format: binding; settings: recombinant co-expression with MBP-BRCA2 fusion
# T2 construct: DMC1 ΔN (83-340) were cloned into pHAT4; made in house
# T2 sequence (Q14565 83-340 G147I/A148D/G149R/Y151G/P152G/G153E/N178G/V179L/D180S/H181G/D182S/A183D limits assumed): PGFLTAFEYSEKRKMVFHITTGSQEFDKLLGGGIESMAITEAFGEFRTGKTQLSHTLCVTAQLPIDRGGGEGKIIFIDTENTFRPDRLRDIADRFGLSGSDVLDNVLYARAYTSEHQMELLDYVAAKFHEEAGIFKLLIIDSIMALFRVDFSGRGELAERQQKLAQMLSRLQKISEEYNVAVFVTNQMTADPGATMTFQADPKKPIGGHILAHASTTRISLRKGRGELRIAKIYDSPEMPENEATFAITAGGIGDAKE
# Source text: as §1
# [4] = test system: DMC1 ΔN F85E; assay: Amylose pull-down of His-DMC1 ΔN F85E (monomeric) with MBP-BRCA2 fusions; format: binding, human; settings: lysates mixed; MBP-BRCA2 fusion; 20 mM Tris pH 8.0, 500 mM KCl, 2 mM DTT
# Procedure: For affinity experiments involving DMC1 ΔN V179E and F85E, MBP-fusions of BRCA2 fragments (Ex14, amino-acids 2387-2420, Ex14-Tr, amino acids 2401-2414, BRC4, amino acids 1519-1551) were cloned into pMAT11 vectors and DMC1 ΔN mutants (V179E or F85E) were cloned into pHAT4 vectors. Lysates of bacterial cultures expressing His6-DMC1 mutants or MBP-BRCA2 constructs were mixed, and complexes were purified through amylose affinity chromatography in 20 mM Tris pH 8.0, 500 mM KCl, 2 mM DTT and eluted using 30 mM D-maltose.
# [5] = test system: RAD51 ΔN; assay: Amylose pull-down of RAD51 ΔN with MBP-BRCA2 fusions; format: binding; settings: recombinant co-expression with MBP-BRCA2 fusion
# Source text: as §1
# [6] = test system: RAD51 ΔN loop mutant; assay: Amylose pull-down of RAD51 loop mutant with MBP-BRCA2 fusions; settings: RAD51 with DMC1's PhePP-binding loops; MBP-BRCA2 fusion
# Source text: as §1
# [7] = test system: RAD51; settings: cited from earlier work
# Source text: BRCA2 interacts with RAD51 and DMC1 recombinases through BRC repeats and PhePP motifs (Fig. 1a)[21],[25]–[28]. The eight BRC repeats, located within BRCA2’s central exon 11 region, bind to RAD51 and DMC1 with various affinities[25],[29],[30]. […] The first loop consists of amino-acids 147-GAGGYPG-153 in DMC1 and 148-IDRGGGE-154 in RAD51 (herein referred to as PhePP-binding loop A; Fig. 1d), and is one of the most divergent regions between DMC1 and RAD51 (Supplementary Fig. 4). The second loop consists of amino-acids 178-NVDHDA-183 in DMC1 and 179-GLSGSD-184 in RAD51 (herein referred to as PhePP-binding loop B; Fig. 1e), in which residues V179 (DMC1) and L180 (RAD51) substantially contribute to the PhePP-binding pocket. ...
Kd [1] [µM],"affinity of Ex14 relative to Ex27 ([1]; MST, DMC1 ΔN)",binding in pull-down [2],binding in pull-down [6],Substance,binding in pull-down [3],binding in pull-down [4],binding in pull-down [5],"selective binding to RAD51 ([7]; ref [21],[27],[32])","binding to RAD51 filaments versus monomers ([7]; ref [33],[34])"
30.4,over threefold higher affinity than Ex27,bind,failed to,ATRNEKMRHLITTGRPTKVFVPPFKTKSHFHRVE [Ex14],abolished its ability to bind Ex14; also recorded: blocked Ex14-,failed to interact; also recorded: no interaction,binds selectively to BRCA2 Ex27 rather than Ex14,–,–
> 96.2,–,not,failed to,"Ex27: BRCA2 exon 27 PhePP peptide, amino acids 3270-3315 (ALDFLSRLPLPPPVSPICTFVSPAAQKAFQPPRSCGTKYETPIKKK; UniProt P51587 3270-3315, looked up, fragment)",failed to bind; also recorded: failed to interact with Ex27,–,binds selectively,"bind selectively to DMC1 and RAD51, respectively","binds to RAD51 filaments, rather than monomers"
